Laboratory results taken from patent publication US9175045B2, “Peptidomimetic macrocycles” (Aileron Therapeutics, Inc., priority 2008, dated 2015).
Numbered stars: 1 amine (or outer) side, 2 acyl side, 3 side chain; on linkers, the order of the positions; unused ones are H or OH. Bridge positions count the residues as written; N and C are the ends. Square brackets hold non-standard residues; d marks the D form. Peptide text beside a SMILES is read from it. * marks the point of attachment. ξ: configuration not given here. ξαMeNle(6-ylidene) = CC(CCCC=[*:3])(N[*:1])C(=O)[*:2]; Nle = CCCC[C@H](N)C(=O)O; Aib = CC(C)(N)C(=O)O; Propionyl = CCC(=O)*

Experiments:
human serum proteins = test: Apparent affinity to human serum proteins (Kd*) by EC50 shift analysis; type: in vitro ADME; settings: nonlinear regression of EC50 shift with serum, n = 1, P = 700 μM for 100% serum
Source text: The measurement of apparent Kd values for serum protein by EC50 shift analysis provides a simple and rapid means of quantifying the propensity of experimental compounds to bind HSA and other serum proteins. A linear relationship exists between the apparent EC50 in the presence of serum protein (EC′50) and the amount of serum protein added to an in vitro assay. This relationship is defined by the binding affinity of the compound for serum proteins, expressed as Kd*. This term is an experimentally determined, apparent dissociation constant that may result from the cumulative effects of multiple, experimentally indistinguishable, binding events. The form of this relationship is presented here in Eq. 0.3, and its derivation can be found in Copeland et al, Biorg. Med. Chem. Lett. 2004, 14:2309-2312. [formula] A significant proportion of serum protein binding can be ascribed to drug interactions with HSA, due to the very high concentration of this protein in serum (35-50 g/L or 530-758 μM). To calculate the Kd value for these compounds we have assumed that the shift in EC50 upon protein addition can be ascribed fully to the HSA present in the added serum, where P is 700 μM for 100% serum, P is 70 μM for 10% serum, etc. We further made the simplifying assumption that all of the compounds bind HSA with a 1:1 stoichiometry, so that the term n in Eq. (0.3) is fixed at unity. With these parameters in place we calculated the Kd* value for each stapled peptide from the changes in EC50 values with increasing serum (and serum protein) concentrations by nonlinear regression analysis of Eq. 0.3 using Mathematica 4.1 (Wolfram Research, Inc., www.wolfram.com). EC′50 values in whole blood are estimated by setting P in Eq. 0.3 to 700 μM [HSA].

[1] = Estimated free fraction in blood, calculated from Kd* with [HSA]total 700 μM; type: in vitro ADME; settings: human; [HSA]total set at 700 μM; read-out: Free Fraction est. in blood
Method: The free fraction in blood is estimated per the following equation, as derived by Trainor, Expert Opin. Drug Disc., 2007, 2(1):51-64, where [HSA]total is set at 700 μM. [formula]

Jurkat cell line = type: cell-based; settings: 24 h
Method: Jurkat cell line (Clone E6-1, ATCC catalog #TIB-152) is grown in specific serum-supplemented media (RPMI-1640, Invitrogen catalog #22400) as recommended by ATCC. A day prior to the initiation of the study, cells are split at optimal cell density (2×10^5-5×10^5 cells/ml) to assure actively dividing cells. The next day, cells are washed twice in serum-free Opti-MEM media (Invitrogen, Catalog #51985) and cells are then plated at optimal cell density (10,000 cells/well) in 50 μl Opti-MEM media or Opti-MEM supplemented with 2% or 10% human serum (Bioreclamation, catalog #HMSRM) in 96-well white tissue culture plate (Nunc, catalog #136102).
For serum free experiment, crosslinked polypeptides are diluted from 2 mM stocks (100% DMSO) in sterile water to prepare 400 μM working solutions. The crosslinked polypeptides and controls are diluted 10-fold first and then serially two-fold diluted in Opti-MEM in dosing plates to provide concentrations of between 1.2 and 40 μM. 50 μl of each dilution is then added to the appropriate wells of the test plate to achieve final concentrations of the polypeptides equal to between 0.6 to 20 μM. For studies using Opti-MEM supplemented with human serum (Bioreclamation, catalog #HMSRM), crosslinked polypeptides are diluted from 10 mM stocks (100% DMSO) in sterile water to prepare 2 mM working solutions. The crosslinked polypeptides and controls are diluted 10-fold first and then serially two-fold diluted in Opti-MEM in the presence of 2% or 10% of human serum to provide concentrations of the polypeptides equal to between 6.25 to 200 μM in dosing plates. 50 μl of each dilution is then added to the appropriate wells of the test plate to achieve final concentrations of the polypeptides equal to between 3.125 to 100 μM. Controls included wells without polypeptides containing the same concentration of DMSO as the wells containing the macrocycles, wells containing 0.1% Triton X-100 and wells containing no cells. Plates are incubated for 24 hours at 37° C. in humidified 5% CO2 atmosphere.
At the end of the incubation period, CellTiter-Glo assay is performed according to manufacturer's instructions (Promega, catalog #G7573) and luminescence is measured using Synergy HT Plate reader (BioTek). Luminescence correlates with viability. A reduction in viability reflects the ability of the test compounds to induce programmed cell death via BAX and BAK.

Question: For CCCC[C@H](NC(=O)C1(C)CCCC=CCCCC(C)(NC(=O)[C@H](C)NC(=O)[C@H](CC(C)C)NC(=O)[C@H](Cc2c[nH]cn2)NC(=O)[C@H](CCCNC(=N)N)NC(=O)[C@H](C)NC(=O)[C@@H](NC(=O)[C@H](CC(N)=O)NC(=O)[C@H](CCCNC(=N)N)NC(=O)[C@H](C)NC(=O)[C@H](C)NC(=O)[C@H](CC(=O)O)NC(C)=O)[C@@H](C)CC)C(=O)N[C@@H](C(C)C)C(=O)NC(C)(C)C(=O)N[C@@H](CC(=O)O)C(=O)N1)C(=O)N[C@@H](C)C(=O)N[C@@H](CCCNC(=N)N)C(=O)N[C@@H](CO)C(=O)N[C@H](C(N)=O)[C@@H](C)CC (stereo partly drawn) [Compound 2, Ac-DAARNIARHLA$VAibD$NleARSI-NH2] (Ac-DAARNIARHLA[ξαMeNle(6-ylidene)]V[Aib]D[ξαMeNle(6-ylidene)][Nle]ARSI-NH2; staple 12-16), which Kd (human serum proteins) is on record?
Answer: < 0.1 µM

Question: What about the fraction unbound [1] of the same compound?
Answer: < 0.001

Question: And the EC50 (Jurkat cell line)?
Answer: 1.6 µM

Question: Which Kd (human serum proteins) does the source give for CC[C@H](C)[C@H](NC(C)=O)C(=O)N[C@@H](Cc1c[nH]c2ccccc12)C(=O)N[C@H](C(=O)N[C@@H](C)C(=O)N[C@@H](CCC(N)=O)C(=O)N[C@@H](CCC(N)=O)C(=O)N[C@@H](CC(C)C)C(=O)N[C@@H](CCCNC(=N)N)C(=O)NC1(C)CCCC=CCCCC(C)(C(=O)N[C@@H](Cc2ccccc2)C(=O)N[C@@H](CC(N)=O)C(=O)N[C@@H](C)C(=O)N[C@@H](Cc2ccc(O)cc2)C(=O)N[C@@H](Cc2ccc(O)cc2)C(=O)N[C@@H](C)C(=O)N[C@@H](CCCNC(=N)N)C(=O)N[C@@H](CCCNC(=N)N)C(N)=O)NC(=O)[C@H](CC(=O)O)NC(=O)CNC(=O)[C@H]([C@@H](C)CC)NC1=O)[C@@H](C)CC (stereo partly drawn) [Compound 11, Ac-IWIAQQLR$IGD$FNAYYARR-NH2] here?
Answer: 1.1 µM

Question: What about the fraction unbound [1] of the same compound?
Answer: 0.0018

Question: And the EC50 (Jurkat cell line)?
Answer: 1.2 µM

Question: Which results are given for CC[C@H](C)[C@H](NC(C)=O)C(=O)N[C@@H](Cc1c[nH]c2ccccc12)C(=O)N[C@H](C(=O)N[C@@H](C)C(=O)N[C@@H](CCC(N)=O)C(=O)N[C@@H](C)C(=O)N[C@@H](CC(C)C)C(=O)N[C@@H](CCCNC(=N)N)C(=O)NC1(C)CCCC=CCCCC(C)(C(=O)N[C@@H](Cc2ccccc2)C(=O)N[C@@H](CC(N)=O)C(=O)N[C@@H](C)C(=O)N[C@@H](Cc2ccc(O)cc2)C(=O)N[C@@H](Cc2ccc(O)cc2)C(=O)N[C@@H](C)C(=O)N[C@@H](CCCNC(=N)N)C(=O)N[C@@H](CCCNC(=N)N)C(N)=O)NC(=O)[C@H](CC(=O)O)NC(=O)CNC(=O)[C@H]([C@@H](C)CC)NC1=O)[C@@H](C)CC (stereo partly drawn) [Compound 12, Ac-IWIAQALR$IGD$FNAYYARR-NH2]?
Answer: Kd (human serum proteins): 2.3 µM; fraction unbound [1]: 0.0038; EC50 (Jurkat cell line): 1.3 µM

Question: Which results are given for CCC(=O)N[C@@H](CCCNC(=N)N)C(=O)N[C@@H](CC(N)=O)C(=O)N[C@H](C(=O)NC(C)(C)C(=O)N[C@@H](CCCNC(=N)N)C(=O)N[C@@H](Cc1c[nH]cn1)C(=O)N[C@@H](CC(C)C)C(=O)NC(C)(C)C(=O)NC1(C)CCCC=CCCCC(C)(C(=O)N[C@@H](C)C(=O)N[C@@H](C)C(=O)N[C@@H](CCCNC(=N)N)C(=O)N[C@@H](CO)C(=O)N[C@H](C(N)=O)[C@@H](C)CC)NC(=O)[C@H](CC(=O)O)NC(=O)C(C)(C)NC(=O)[C@H](C(C)C)NC1=O)[C@@H](C)CC (stereo partly drawn) [Compound 9, Pr-RNIAibRHLAib$VAibD$AARSI-NH2] (Propionyl-RNI[Aib]RHL[Aib][ξαMeNle(6-ylidene)]V[Aib]D[ξαMeNle(6-ylidene)]AARSI-NH2; staple 9-13)?
Answer: Kd (human serum proteins): 2.9 µM; fraction unbound [1]: 0.0048; EC50 (Jurkat cell line): 1.1 µM

Question: Which results are given for CCCC[C@H](NC(=O)C1(C)CCCC=CCCCC(C)(NC(=O)[C@H](C)NC(=O)[C@H](CC(C)C)NC(=O)[C@H](Cc2c[nH]cn2)NC(=O)[C@H](CCCNC(=N)N)NC(=O)[C@H](C)NC(=O)[C@@H](NC(=O)[C@H](CC(N)=O)NC(=O)[C@H](CCCNC(=N)N)NC(=O)[C@H](C)NC(=O)[C@@H](NC(=O)[C@H](CC(=O)O)NC(C)=O)[C@@H](C)CC)[C@@H](C)CC)C(=O)N[C@@H](C(C)C)C(=O)NC(C)(C)C(=O)N[C@@H](CC(=O)O)C(=O)N1)C(=O)N[C@@H](C)C(=O)N[C@@H](CCCNC(=N)N)C(=O)N[C@@H](CO)C(=O)N[C@H](C(N)=O)[C@@H](C)CC (stereo partly drawn) [Compound 3, Ac-DIARNIARHLA$VAibD$NleARSI-NH2] (Ac-DIARNIARHLA[ξαMeNle(6-ylidene)]V[Aib]D[ξαMeNle(6-ylidene)][Nle]ARSI-NH2; staple 12-16)?
Answer: Kd (human serum proteins): < 0.1 µM; fraction unbound [1]: < 0.001; EC50 (Jurkat cell line): 1.2 µM

Question: Which results are given for CC[C@H](C)[C@H](NC(C)=O)C(=O)N[C@@H](Cc1c[nH]c2ccccc12)C(=O)N[C@H](C(=O)N[C@@H](C)C(=O)N[C@@H](CCC(N)=O)C(=O)N[C@@H](C)C(=O)N[C@@H](CC(C)C)C(=O)N[C@@H](CCCNC(=N)N)C(=O)NC1(C)CCCC=CCCCC(C)(C(=O)N[C@@H](Cc2ccccc2)C(=O)N[C@@H](CC(N)=O)C(=O)N[C@@H](C)C(=O)N[C@@H](Cc2ccc(O)cc2)C(=O)N[C@@H](Cc2ccc(O)cc2)C(=O)N[C@@H](C)C(=O)N[C@@H](CCCNC(=N)N)C(=O)N[C@@H](CCCNC(=N)N)C(N)=O)NC(=O)[C@H](CC(N)=O)NC(=O)CNC(=O)[C@H]([C@@H](C)CC)NC1=O)[C@@H](C)CC (stereo partly drawn) [Compound 16, Ac-IWIAQALR$IGN$FNAYYARR-NH2]?
Answer: Kd (human serum proteins): 3.5 µM; fraction unbound [1]: 0.0058; EC50 (Jurkat cell line): 0.5 µM

Question: For CC[C@H](C)[C@H](NC(=O)[C@H](CCCNC(=N)N)NC(=O)[C@H](CCCNC(=N)N)NC(=O)[C@H](CCCNC(=N)N)NC(=O)[C@H](CC(C)C)NC(=O)[C@H](C)NC(C)=O)C(=O)NC1(C)CCCC=CCCCC(C)(C(=O)N[C@@H](Cc2c[nH]cn2)C(=O)N[C@@H](Cc2c[nH]cn2)C(=O)N[C@@H](CO)C(=O)N[C@H](C(N)=O)[C@@H](C)O)NC(=O)[C@H](C)NC(=O)[C@H](CS)NC(=O)[C@H](CC(C)C)NC1=O (stereo partly drawn) [Compound 19, Ac- ALRRRI$LCA$HHST-NH2] (Ac-ALRRRI[ξαMeNle(6-ylidene)]LCA[ξαMeNle(6-ylidene)]HHST-NH2; staple 7-11), which Kd (human serum proteins) is on record?
Answer: 0.6 µM

Question: And the fraction unbound [1]?
Answer: 0.001

Question: What about the EC50 (Jurkat cell line) of the same compound?
Answer: 2.4 µM

Question: Which results are given for CC[C@H](C)[C@H](NC(=O)[C@H](Cc1c[nH]c2ccccc12)NC(=O)[C@H](CCCNC(=N)N)NC(C)=O)C(=O)N[C@@H](C)C(=O)N[C@@H](CCC(N)=O)C(=O)N[C@@H](CCC(N)=O)C(=O)N[C@@H](CC(C)C)C(=O)N[C@@H](CCCNC(=N)N)C(=O)NC1(C)CCCC=CCCCC(C)(C(=O)N[C@@H](Cc2ccccc2)C(=O)N[C@@H](CC(N)=O)C(=O)N[C@@H](C)C(=O)N[C@@H](Cc2ccc(O)cc2)C(=O)N[C@@H](Cc2ccc(O)cc2)C(=O)N[C@@H](C)C(=O)N[C@@H](CCCNC(=N)N)C(=O)N[C@@H](CCCNC(=N)N)C(N)=O)NC(=O)[C@H](CC(=O)O)NC(=O)CNC(=O)[C@H]([C@@H](C)CC)NC1=O (stereo partly drawn) [Compound 13, Ac-RWIAQQLR$IGD$FNAYYARR-NH2]?
Answer: Kd (human serum proteins): 3.8 µM; fraction unbound [1]: 0.0063; EC50 (Jurkat cell line): 1.5 µM
